“And” between values parts separate entries of the source, which are not always exact repeats. Equal values may be shown once. Read-outs that look alike come from different tables or passages of the source.
Test system: T. brucei lysate proteins
Assay type: binding, Trypanosoma brucei

CCCCCCOc1ccc(Cc2cnc(N)nc2N)cc1 [compound 1]
fold change - vehicle control: 0.84 and 0.54 and 0.72 and 0.9 and 0.79 | fold change - vehicle control (protein RHS6A (CZT00028360.1)): 0.94 | fold change - vehicle control (protein TB09.160.1250 HY[…], CONSERVED): 0.85 | fold change - vehicle control (protein TB09.160.3670 RIBOSOMAL PROTEIN S6, PUTATIVE): 0.92 | fold change - vehicle control (protein TB09.211.2630 60S RIBOSOMAL PROTEIN L23, PUTATIVE): 1 | fold change - vehicle control (protein TB09.211.4513 KIN[…] PROTEIN KMP-11): 0.73 | fold change - vehicle control (protein TB11.V4.0005 RIBONUCLEOSIDE-DIPHOSPHATE REDUCTASE SMALL CHAIN): 0.92 | fold change - vehicle control (protein TB11.01.0870 R[…] A, 51KDA SUBUNIT, PUTATIVE): 0.98 | fold change - vehicle control (protein TB11.01.2560 40S RIBOSOMAL PROTEIN SA, PUTATIVE): 1.02 | fold change - vehicle control (protein TB11.01.4880 HY[…], CONSERVED): 0.77 | fold change - vehicle control (protein TB11.01.7090 HY[…], CONSERVED): 0.93 | fold change - vehicle control (protein TB11.02.2510 GUANINE NUCLEOTIDE-BINDING BETA SUBUNIT-LIKE PROTEIN): 0.93 | fold change - vehicle control (protein TB11.02.4170 40S RIBOSOMAL PROTEIN S5, PUTATIVE): 1.3 | fold change - vehicle control (protein TB11.03.0250 C[…]): 1.42 | fold change - vehicle control (protein TB11.46.0009 HY[…], CONSERVED): 0.95 | fold change - vehicle control (protein TB427TMP.01.1475 40S RIBOSOMAL PROTEIN S27, PUTATIVE): 0.92 | fold change - vehicle control (protein TB427TMP.01.4280 HY[…], CONSERVED): 1.08 | fold change - vehicle control (protein TB427TMP.01.4650 HY[…], CONSERVED): 0.58 | fold change - vehicle control (protein TB427TMP.01.4810 HY[…], CONSERVED): 0.83 | fold change - vehicle control (protein TB427TMP.01.5680 HY[…], CONSERVED): 0.33 | fold change - vehicle control (protein TB427TMP.01.8390 HY[…], CONSERVED): 0.87 | fold change - vehicle control (protein TB427TMP.02.0230 HY[…], CONSERVED): 1.01 | fold change - vehicle control (protein TB427TMP.02.0460 NUCLEOPORIN): 0.92 | fold change - vehicle control (protein TB427TMP.02.1106 NUCLEOBASE/NUCLEOSIDE TRANSPORTER 8 1): 1.06 | fold change - vehicle control (protein TB427TMP.160.2050 ENDO-BETA-N-ACETYLGLUCOSAMINIDASE, PUTATIVE): 0.79 | fold change - vehicle control (protein TB427TMP.160.4310 GLUTAMATE DEHYDROGENASE): 1.16 | fold change - vehicle control (protein TB427TMP.160.4450 40S RIBOSOMAL PROTEIN S3, PUTATIVE): 1 | fold change - vehicle control (protein TB427TMP.160.4630 HY[…], CONSERVED): 0.8 | fold change - vehicle control (protein TB427TMP.160.5200 HY[…], CONSERVED): 0.67 | fold change - vehicle control (protein TB427TMP.160.5670 HY[…], CONSERVED): 0.21 | fold change - vehicle control (protein TB427TMP.211.0930 POLYADENYLATE-BINDING PROTEIN 1): 1.23 | fold change - vehicle control (protein TB427TMP.211.1750 MIT[…] PROTEIN, PUTATIVE): 0.86 | fold change - vehicle control (protein TB427TMP.211.3510 ATP-DEPENDENT DEAD/H RNA HELICASE, PUTATIVE): 0.97 | fold change - vehicle control (protein TB427TMP.211.4540 RNA-BINDING PROTEIN, PUTATIVE): 0.71 | fold change - vehicle control (protein TB427TMP.244.2840 HY[…], CONSERVED): 0.64 | fold change - vehicle control (protein TB427.01.1240 CYTIDINE TR[…], PUTATIVE): 0.67 | fold change - vehicle control (protein TB427.01.2570 COATOMER BETA SUBUNIT): 0.88 | fold change - vehicle control (protein TB427.01.3910 HY[…], CONSERVED): 0.83 | fold change - vehicle control (protein TB427.02.6240): 0.95 | fold change - vehicle control (protein TB427.04.3350 HY[…], CONSERVED): 1.02 | fold change - vehicle control (protein TB427.04.3890 ATP-DEPENDENT RNA HELICASE, PUTATIVE): 0.9 | fold change - vehicle control (protein TB427.04.4870 AMINO ACID TRANSPORTER, PUTATIVE): 0.86 | fold change - vehicle control (protein TB427.04.750 50S RIBOSOMAL PROTEIN L7AE, PUTATIVE): 0.67 | fold change - vehicle control (protein TB427.04.960 HY[…], CONSERVED): 0.68 | fold change - vehicle control (protein TB427.05.1780 HY[…], CONSERVED): 0.66 | fold change - vehicle control (protein TB427.05.3030 INTR[…] PROTEIN IFT122, PUTATIVE): 0.78 | fold change - vehicle control (protein TB427.05.4560 GUANINE DEAMINASE, PUTATIVE): 1.07 | fold change - vehicle control (protein TB427.06.2150 CELL DIVISION CYCLE PROTEIN 16, PUTATIVE): 0.92 | fold change - vehicle control (protein TB427.06.3110 PROTEIN KINASE, PUTATIVE (CRK11)): 1.03 | fold change - vehicle control (protein TB427.06.5110 DAMAGE-SPECIFIC DNA BINDING PROTEIN, PUTATIVE): 0.86 | fold change - vehicle control (protein TB427.07.2670 HY[…], CONSERVED): 0.89 | fold change - vehicle control (protein TB427.07.3040 HY[…], CONSERVED): 0.9 | fold change - vehicle control (protein TB427.07.3530 HY[…], CONSERVED): 0.96 | fold change - vehicle control (protein TB427.07.4970 GLUTAMINE SYNTHETASE, PUTATIVE): 0.89 | fold change - vehicle control (protein TB427.07.5560 GLUCOSAMINE-FRUCTOSE-6-PHOSPHATE AMINOTRANSFERASE, PUTATIVE): 0.77 | fold change - vehicle control (protein TB427.07.5890 HY[…], CONSERVED): 0.86 | fold change - vehicle control (protein TB427.07.7070 HY[…], CONSERVED): 0.72 | fold change - vehicle control (protein TB427.07.7460 HY[…], CONSERVED): 0.81 | fold change - vehicle control (protein TB427.08.1500 HY[…], CONSERVED): 0.87 | fold change - vehicle control (protein TB427.08.1840 HY[…], CONSERVED): 1.24 | fold change - vehicle control (protein TB427.08.1960 HY[…], CONSERVED): 0.78 | fold change - vehicle control (protein TB427.08.2080 HY[…], CONSERVED): 0.67 | fold change - vehicle control (protein TB427.08.3750 NUCLEOLAR PROTEIN, PUTATIVE): 0.89 | fold change - vehicle control (protein TB427.08.6390 LYSOPHOSPHOLIPASE, PUTATIVE): 0.97 | fold change - vehicle control (protein TB427.10.10610 PROTEIN TYROSINE PHOSPHATASE, PUTATIVE): 0.62 | fold change - vehicle control (protein TB427.10.1100 60S RIBOSOMAL PROTEIN L9, PUTATIVE): 1.06 | fold change - vehicle control (protein TB427.10.12740): 0.9 | fold change - vehicle control (protein TB427.10.14660 HY[…], CONSERVED): 0.83 | fold change - vehicle control (protein TB427.10.15720 […]-ATP-ASE SUBUNIT 9): 0.9 | fold change - vehicle control (protein TB427.10.2440 METACASPASE MCA4): 0.84 | fold change - vehicle control (protein TB427.10.2900 IMPORTIN BETA-1 SUBUNIT, PUTATIVE): 0.68 | fold change - vehicle control (protein TB427.10.3470 HY[…], CONSERVED): 0.78 | fold change - vehicle control (protein TB427.10.4110 60S RIBOSOMAL PROTEIN L30): 0.82 | fold change - vehicle control (protein TB427.10.4610 […]-MANNOSE SYNTHASE, PUTATIVE): 0.82 | fold change - vehicle control (protein TB427.10.5250 HY[…], CONSERVED): 0.86 | fold change - vehicle control (protein TB427.10.7410 SUCCINYL-COA LIGASE GDP-FORMING] BETA-CHAIN, PUTATIVE): 0.9 | fold change - vehicle control (protein TB927.10.12960 RAS-RELATED PROTEIN RAB-5): 0.82 | fold change - vehicle control (protein TB927.10.14800 PROTEIN KINASE, PUTATIVE): 1.18 | fold change - vehicle control (protein TB927.10.2980 […]-ATPASE SUBUNIT 11): 0.83 | fold change - vehicle control (protein TB927.10.3660 ASPARTATE AMINOTRANSFERASE): 1.14 | fold change - vehicle control (protein TB927.10.4570 […] 2): 0.72 | fold change - vehicle control (protein TB927.10.5140 PROTEIN KINASE, PUTATIVE): 0.83 | fold change - vehicle control (protein TB927.10.560 40S RIBOSOMAL PROTEINS S11, PUTATIVE): 0.94 | fold change - vehicle control (protein TB927.10.6510 CHAPERONIN HSP60, MIT[…]): 0.87 | fold change - vehicle control (protein TB927.3.1840 3-OXO-5-ALPHA-STEROID 4-DEHYDROGENASE, PUTATIVE): 1 | fold change - vehicle control (protein TB927.3.3780 TRYPAREDOXIN): 0.82 | fold change - vehicle control (protein TB927.3.740 HY[…], CONSERVED): 0.83 | fold change - vehicle control (protein TB927.4.2740 HY[…], CONSERVED): 0.74 | fold change - vehicle control (protein TB927.4.3590 T[…] 1-BETA, PUTATIVE): 0.85 | fold change - vehicle control (protein TB927.6.4320 HY[…], CONSERVED): 0.84 | fold change - vehicle control (protein TB927.7.2550 […] SUBUNIT 5): 0.7 | fold change - vehicle control (protein TB927.7.2980 HY[…], CONSERVED): 0.84 | fold change - vehicle control (protein TB927.7.7430 ATP SYNTHASE ALPHA CHAIN, MIT[…]): 0.73 | fold change - vehicle control (protein TB927.8.1990 PEROXIDOXIN): 0.74 | fold change - vehicle control (protein TB927.8.4720 AMINO ACID TRANSPORTER, PUTATIVE): 1.08 | fold change - vehicle control (protein TB927.8.890 SMALL GTP-BINDING PROTEIN RAB1, PUTATIVE): 0.93

Source: article PMC6199744, “Development of Chemical Proteomics for the Folateome and Analysis of the Kinetoplastid Folateome” (ACS Infectious Diseases, 2018)
